Tests used:
Assay type in all cases: biochemical
ICD = target: T1, ICD (Aeromonas hydrophila, UniProt A0KI74); test: NADPH formation, absorbance at […] nm; details: 0.5 mM NADP, 1.5 mM isocitrate, 3 mM MgCl2, 100 mM Tris-HCl pH 8.0, 10% glycerol
T1 construct: recombinant, pET-21b vector, E. coli BL21(DE3), Ni-NTA purified; non-acetylated form
T1 sequence (A0KI74 1-417): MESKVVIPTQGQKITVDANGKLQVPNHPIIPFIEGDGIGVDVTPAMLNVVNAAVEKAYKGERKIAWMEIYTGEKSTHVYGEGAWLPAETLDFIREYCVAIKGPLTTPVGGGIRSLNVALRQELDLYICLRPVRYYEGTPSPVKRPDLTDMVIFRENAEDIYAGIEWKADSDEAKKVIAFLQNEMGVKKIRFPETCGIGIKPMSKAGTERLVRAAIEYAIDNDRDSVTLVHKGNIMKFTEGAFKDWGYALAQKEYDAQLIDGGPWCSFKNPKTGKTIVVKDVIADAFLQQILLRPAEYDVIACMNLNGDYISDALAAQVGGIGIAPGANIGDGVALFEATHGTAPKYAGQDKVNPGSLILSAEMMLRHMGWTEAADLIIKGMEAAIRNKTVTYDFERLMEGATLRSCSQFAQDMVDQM

AhCobB [1] = target: T2, AhCobB (Aeromonas hydrophila, UniProt A0KKN9); test: deacetylation of Kac-BSA, anti-Kac western blot; details: 0.25 mM NAD+ as co-substrate; 150 mM Tris-HCl pH 8.0, 10% glycerol, 37 °C, 3 h
T2 construct: gene cobB; recombinant, pET-21b/32a vector, E. coli BL21(DE3), Ni-NTA purified
T2 sequence (A0KKN9 1-257): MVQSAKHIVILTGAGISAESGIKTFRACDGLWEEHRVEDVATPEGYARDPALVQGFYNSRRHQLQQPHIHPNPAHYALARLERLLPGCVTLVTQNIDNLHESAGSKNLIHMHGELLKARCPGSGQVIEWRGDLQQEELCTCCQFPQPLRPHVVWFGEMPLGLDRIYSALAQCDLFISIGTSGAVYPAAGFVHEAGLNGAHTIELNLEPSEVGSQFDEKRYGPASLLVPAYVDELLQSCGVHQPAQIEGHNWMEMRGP

AhCobB [2] = target: T2, AhCobB; test: deacetylation of Kac-BSA, anti-Kac western blot; details: 0.5 mM NAM; 150 mM Tris-HCl pH 8.0, 10% glycerol, 37 °C, 3 h; inhibitor

NC(=O)c1ccc[n+]([C@@H]2O[C@H](COP(=O)(O)OP(=O)(O)OC[C@H]3O[C@@H](n4cnc5c(N)ncnc54)[C@H](OP(=O)(O)O)[C@@H]3O)[C@@H](O)[C@H]2O)c1 [NADP^+]
NADPH formation, absorbance at 340 nm (ICD): The enzymatic activity of ICD was detected by measuring the amount of NADPH generated

NC(=O)c1ccc[n+]([C@@H]2O[C@H](COP(=O)(O)OP(=O)(O)OC[C@H]3O[C@@H](n4cnc5c(N)ncnc54)[C@H](O)[C@@H]3O)[C@@H](O)[C@H]2O)c1 [NAD^+]
deacetylation of Kac-BSA, anti-Kac western blot (AhCobB [1]): AhCobB and AhAcuC significantly deacetylated Kac-BSA in the presence of NAD^+ or Zn2 ^+ buffer

NC(=O)c1cccnc1 [nicotinamide]
inhibition (AhCobB [2]): the KDAC activity of AhCobB was inhibited when the sirtuin inhibitor nicotinamide (NAM) was added
